Test results published in patent US8252557B2, “Peptide-containing culture medium for culturing animal cell” (Chugai Seiyaku Kabushiki Kaisha, priority 2008, dated 2012).

Tested on: humanized IgG (anti-glypican-3 antibody)-producing CHO cell line
Assay: Antibody-producing fed-batch culture, CHO cell line transfected with antibody gene
Type: cell-based
Details: for concentration of lactic acid during culture: compared to fed-batch medium not containing the peptide; for antibody concentration after the 14-day culture: fed day 3-14 at 1.0 g/hr per L, control about 1.6 g/L; for antibody concentration higher than control: peptide-containing fed-batch medium vs fed-batch medium without peptide, day 14
Procedure: (§1) The initial culture medium was placed in a jar-type cell culture system, and then the CHO cell line was added thereto into a concentration of 2×10^5 cells/mL and was cultured under the conditions of 37° C. and 10% CO2. During the culture period of 14 days, a pH level of not lower than 7.0 and a dissolved oxygen level of 40% were automatically maintained. The fed-batch medium was continuously fed from the 3rd day to the 14th day of the culture at a constant flow rate (1.0 g/hr for 1 L of the initial culture medium). The culture medium was sampled at the start of the culture and on the 3rd, 5th, 7th, 10th, 12th, and 14th days. The number of viable cells in each sampled culture solution was counted by trypan blue staining. The antibody concentration in the centrifuged supernatant of each culture solution was measured by affinity chromatography using protein A, and the concentration of lactic acid was measured by an immobilized enzyme process.
as §1, with “concentration” for “number”, “the produced” for “viable cells in each sampled culture solution was counted by trypan blue staining. The”, “antibody” for “antibody concentration”, “the” for “the centrifuged”, “sample” for “solution”, “A; the survival rate was measured by trypan blue staining;” for “A,”

[1] = fed-batch medium containing 50 mM of the peptide

Row | Substance | concentration of lactic acid during culture | antibody concentration after the 14-day culture (fed-batch medium containing 25 mM of the tripeptide) | antibody concentration after the 14-day culture [1] | antibody concentration higher than control
1 | Cys-Tyr-Ser [tripeptide] | relatively low levels from the 3rd day to the 10th day | about 2.1 g/L | about 2.1 g/L | about 30%
2 | Cys-Tyr [dipeptide] | relatively low levels from the 5th day to the 10th day | – | about 2.0 g/L | about 25%
